# Reference: the NIST ThermoML archive (doi:10.1021/acs.jced.5b00331)
# ± gives the expanded uncertainty stated by the source.
# Columns and labels:
# [1] = xn = mol fraction of the nth substance listed; details: 101 kPa, Liquid; for mass density: Vibrating tube method; for excess molar volume: Direct dilatometry
# [2] = 313.15 K; 101.33 kPa; Liquid; Vibrating tube method
smiles,measurement,setting,value
CCCCCCCCCCCCCCCCCCCCCCCC [tetracosane] + CCCCCCCC,mass density,"[1]; 313.15 K, x2 = 0.5",758.8 ± 0.3 kg/m3
same,mass density,"[1]; 315.65 K, x2 = 0.5",757.1 ± 0.3 kg/m3
CCCCCCCCCCCCCCCC [hexadecane],mass density,[2],762.9 ± 0.3 kg/m3
CCCCCCCCCCCCCCCC [hexadecane] + C1CCCCC1,excess molar volume,"[1]; 313.15 K, x2 = 0.0083",1.32e-08 ± 2.8e-09 m3/mol
same,excess molar volume,"[1]; 313.15 K, x2 = 0.03441",5.31e-08 ± 2.9e-09 m3/mol
same,excess molar volume,"[1]; 313.15 K, x2 = 0.0839",1.341e-07 ± 3.1e-09 m3/mol
same,excess molar volume,"[1]; 313.15 K, x2 = 0.1372",2.074e-07 ± 3.8e-09 m3/mol
same,excess molar volume,"[1]; 313.15 K, x2 = 0.2221",3.185e-07 ± 5.1e-09 m3/mol
same,excess molar volume,"[1]; 313.15 K, x2 = 0.3029",4.088e-07 ± 6.6e-09 m3/mol
same,excess molar volume,"[1]; 313.15 K, x2 = 0.3641",4.671e-07 ± 7.7e-09 m3/mol
same,excess molar volume,"[1]; 313.15 K, x2 = 0.4199",5.136e-07 ± 8.8e-09 m3/mol
same,excess molar volume,"[1]; 313.15 K, x2 = 0.4911",5.593e-07 ± 1e-08 m3/mol
same,excess molar volume,"[1]; 313.15 K, x2 = 0.5316",5.779e-07 ± 9.7e-09 m3/mol
same,excess molar volume,"[1]; 313.15 K, x2 = 0.5632",5.878e-07 ± 9.2e-09 m3/mol
same,excess molar volume,"[1]; 313.15 K, x2 = 0.59",5.938e-07 ± 8.6e-09 m3/mol
same,excess molar volume,"[1]; 313.15 K, x2 = 0.6216",5.968e-07 ± 8e-09 m3/mol
same,excess molar volume,"[1]; 313.15 K, x2 = 0.6527",5.956e-07 ± 7.4e-09 m3/mol
same,excess molar volume,"[1]; 313.15 K, x2 = 0.6834",5.888e-07 ± 6.9e-09 m3/mol
same,excess molar volume,"[1]; 313.15 K, x2 = 0.7073",5.731e-07 ± 6.3e-09 m3/mol
same,excess molar volume,"[1]; 313.15 K, x2 = 0.7163",5.728e-07 ± 6.1e-09 m3/mol
same,excess molar volume,"[1]; 313.15 K, x2 = 0.7223",5.731e-07 ± 6.1e-09 m3/mol
same,excess molar volume,"[1]; 313.15 K, x2 = 0.7489",5.558e-07 ± 6.1e-09 m3/mol
same,excess molar volume,"[1]; 313.15 K, x2 = 0.7508",5.513e-07 ± 6.1e-09 m3/mol
same,excess molar volume,"[1]; 313.15 K, x2 = 0.7749",5.318e-07 ± 5.3e-09 m3/mol
same,excess molar volume,"[1]; 313.15 K, x2 = 0.8022",5.039e-07 ± 4.8e-09 m3/mol
same,excess molar volume,"[1]; 313.15 K, x2 = 0.8303",4.675e-07 ± 4.5e-09 m3/mol
same,excess molar volume,"[1]; 313.15 K, x2 = 0.8736",3.939e-07 ± 4e-09 m3/mol
same,excess molar volume,"[1]; 313.15 K, x2 = 0.8928",3.535e-07 ± 3.9e-09 m3/mol
same,excess molar volume,"[1]; 313.15 K, x2 = 0.9106",3.105e-07 ± 3.9e-09 m3/mol
same,excess molar volume,"[1]; 313.15 K, x2 = 0.9242",2.747e-07 ± 4e-09 m3/mol
same,excess molar volume,"[1]; 313.15 K, x2 = 0.9453",2.13e-07 ± 4e-09 m3/mol
same,excess molar volume,"[1]; 313.15 K, x2 = 0.9634",1.518e-07 ± 4.4e-09 m3/mol
same,excess molar volume,"[1]; 313.15 K, x2 = 0.9801",8.6e-08 ± 4.7e-09 m3/mol
same,excess molar volume,"[1]; 313.15 K, x2 = 0.988",5.32e-08 ± 4.9e-09 m3/mol
same,excess molar volume,"[1]; 313.15 K, x2 = 0.9948",2.3e-08 ± 5e-09 m3/mol
CCCCCCCCCCCCCCCCCC [octadecane] + CCCCCCCCCCCCCC,mass density,"[1]; 313.15 K, x2 = 0.5001",758.4 ± 0.2 kg/m3
CCCCCCCCCCCCCCCCCCCCCC [docosane] + CCCCCCCCCC,mass density,"[1]; 313.15 K, x2 = 0.5001",758.9 ± 0.2 kg/m3
C1CCCCC1 [cyclohexane],mass density,[2],759.8 ± 0.2 kg/m3
C1CCCCCC1 [cycloheptane] + C1CCCC1,mass density,"[1]; 313.15 K, x2 = 0.4999",762.9 ± 0.2 kg/m3
